One molecule from ChEMBL document CHEMBL3779870, “Differential metabolism of 3FDT and docetaxel in RLMs, rats, and HLMs” (Eur J Med Chem, 2016) can be followed below.

Data set [1] is described as follows: Drug metabolism in Sprague-Dawley rat feces assessed as metabolite M3 formation at 40 mg/kg, iv administered as single dose after 24 hrs by HPLC-TIC chromatography. The format is ADME, organism-based. The conditions noted are these: in vivo.
In data set [2] the test system is Plasma. Put plainly: Drug metabolism in Sprague-Dawley rat plasma assessed as metabolite M1 formation at 40 mg/kg, iv administered as single dose after 4 to 24 hrs by HPLC-TIC chromatography. The format is ADME, organism-based. The conditions noted are these: in vivo.
Data set [3] in a line: Drug metabolism in Sprague-Dawley rat feces assessed as 7-epi-3FDT formation at 40 mg/kg, iv administered as single dose after 24 hrs by HPLC-TIC chromatography. The conditions noted are these: in vivo. In kind it is ADME, organism-based.
The target of the next data set is Cytochrome P450 2C19 (Homo sapiens, UniProt P33261). The data set can be described thus: Drug metabolism assessed as recombinant human CYP2C19 mediated metabolite formation at 10 uM preincubated for 5 mins followed by addition of NADPH measured after 120 mins by HPLC-TIC chromatography. The format is ADME. To be noted: recombinant enzyme, 2 h.
Data set [4] in a line: AUC (0 to t) in Sprague-Dawley rat. In kind it is ADME, organism-based. To be noted: in vivo.
The subject of data set [5] is Plasma. Put plainly: Drug metabolism in Sprague-Dawley rat plasma assessed as metabolite M3 formation at 40 mg/kg, iv administered as single dose after 4 to 24 hrs by HPLC-TIC chromatography. In kind it is ADME, organism-based. To be noted: in vivo.
A further data set addresses Cytochrome P450 3A5 (Homo sapiens, UniProt P20815). The data set can be described thus: Drug metabolism assessed as recombinant human CYP3A5 mediated metabolite M2 formation at 10 uM preincubated for 5 mins followed by addition of NADPH measured after 120 mins by HPLC-TIC chromatography. To be noted: recombinant enzyme, 2 h. The format is ADME.
The target of the next data set is Cytochrome P450 2E1 (Homo sapiens, UniProt P05181). The data set can be described thus: Drug metabolism assessed as recombinant human CYP2E1 mediated metabolite M4 formation at 10 uM preincubated for 5 mins followed by addition of NADPH measured after 120 mins by HPLC-TIC chromatography. The format is ADME. To be noted: recombinant enzyme, 2 h.
Data set [6] is described as follows: Drug metabolism in Sprague-Dawley rat urine assessed as metabolite M2 formation at 40 mg/kg, iv administered as single dose after 24 hrs by HPLC-TIC chromatography. The format is ADME, organism-based. The conditions noted are these: in vivo.
Data set [7] can be described thus: Drug metabolism in Sprague-Dawley rat urine assessed as metabolite M4 formation at 40 mg/kg, iv administered as single dose after 24 hrs by HPLC-TIC chromatography. In kind it is ADME, organism-based. To be noted: in vivo.
Data set [8] in a line: Apparent volume of distribution in Sprague-Dawley rat. The format is ADME, organism-based. To be noted: in vivo, read-out: Vd(app).
For data set [9], the system named is Plasma. The data set can be described thus: Drug metabolism in Sprague-Dawley rat plasma assessed as metabolite M4 formation at 40 mg/kg, iv administered as single dose after 4 to 24 hrs by HPLC-TIC chromatography. To be noted: in vivo. In kind it is ADME, organism-based.
Data set [10] can be described thus: Drug metabolism in Sprague-Dawley rat feces assessed as metabolite M8 formation at 40 mg/kg, iv administered as single dose after 24 hrs by HPLC-TIC chromatography. In kind it is ADME, organism-based. The conditions noted are these: in vivo.
Data set [11] in a line: Drug metabolism in Sprague-Dawley rat urine assessed as metabolite M1 formation at 40 mg/kg, iv administered as single dose after 24 hrs by HPLC-TIC chromatography. In kind it is ADME, organism-based. The conditions noted are these: in vivo.
A further data set has as its target T1, Cytochrome P450 2A6 (Homo sapiens, UniProt P11509).
T1 sequence (P11509 whole entry): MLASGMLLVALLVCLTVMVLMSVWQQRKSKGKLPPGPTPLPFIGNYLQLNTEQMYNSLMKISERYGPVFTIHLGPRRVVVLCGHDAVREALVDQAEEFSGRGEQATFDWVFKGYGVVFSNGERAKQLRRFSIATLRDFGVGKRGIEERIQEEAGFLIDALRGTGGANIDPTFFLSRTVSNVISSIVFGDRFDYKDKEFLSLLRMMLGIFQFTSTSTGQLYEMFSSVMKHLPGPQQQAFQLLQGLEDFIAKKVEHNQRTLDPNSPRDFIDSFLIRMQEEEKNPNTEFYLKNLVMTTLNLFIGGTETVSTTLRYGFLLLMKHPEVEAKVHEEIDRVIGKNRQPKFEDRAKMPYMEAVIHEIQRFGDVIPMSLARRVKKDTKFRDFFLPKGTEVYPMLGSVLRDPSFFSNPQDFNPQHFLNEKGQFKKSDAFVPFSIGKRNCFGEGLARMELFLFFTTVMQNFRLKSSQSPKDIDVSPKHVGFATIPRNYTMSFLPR
Put plainly: Drug metabolism assessed as recombinant human CYP2A6 mediated metabolite formation at 10 uM preincubated for 5 mins followed by addition of NADPH measured after 120 mins by HPLC-TIC chromatography. The format is ADME. To be noted: recombinant enzyme, 2 h.

The target in data set [12] is T2, Cytochrome P450 3A4 (Homo sapiens, UniProt P08684). The data set can be described thus: Drug metabolism assessed as recombinant human CYP3A4 mediated metabolite M2 formation at 10 uM preincubated for 5 mins followed by addition of NADPH measured after 120 mins by HPLC-TIC chromatography. The format is ADME. To be noted: recombinant enzyme, 2 h.
The target of data set [13] is T2, Cytochrome P450 3A4. Put plainly: Drug metabolism assessed as recombinant human CYP3A4 mediated metabolite M1 formation at 10 uM preincubated for 5 mins followed by addition of NADPH measured after 120 mins by HPLC-TIC chromatography. The format is ADME. The conditions noted are these: recombinant enzyme, 2 h.
Data set [14] in a line: Drug metabolism in Sprague-Dawley rat urine assessed as metabolite M3 formation at 40 mg/kg, iv administered as single dose after 24 hrs by HPLC-TIC chromatography. In kind it is ADME, organism-based. The conditions noted are these: in vivo.

Each structure is given as a SMILES string.

T2 sequence (P08684 whole entry): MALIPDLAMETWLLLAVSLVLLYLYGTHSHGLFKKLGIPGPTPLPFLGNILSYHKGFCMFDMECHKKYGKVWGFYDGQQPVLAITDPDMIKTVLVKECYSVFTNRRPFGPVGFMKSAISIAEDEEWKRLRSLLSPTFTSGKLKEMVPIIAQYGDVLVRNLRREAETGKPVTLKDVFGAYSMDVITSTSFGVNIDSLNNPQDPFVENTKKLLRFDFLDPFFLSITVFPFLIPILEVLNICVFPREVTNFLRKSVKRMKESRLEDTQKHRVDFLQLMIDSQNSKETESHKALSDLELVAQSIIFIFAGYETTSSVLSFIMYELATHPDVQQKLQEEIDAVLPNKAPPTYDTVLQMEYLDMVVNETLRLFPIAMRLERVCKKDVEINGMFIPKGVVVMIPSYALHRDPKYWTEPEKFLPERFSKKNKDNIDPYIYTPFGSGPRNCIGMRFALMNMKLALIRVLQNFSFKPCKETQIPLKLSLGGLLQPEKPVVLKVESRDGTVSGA
Chain of Cytochrome P450 3A5 (P20815 whole entry): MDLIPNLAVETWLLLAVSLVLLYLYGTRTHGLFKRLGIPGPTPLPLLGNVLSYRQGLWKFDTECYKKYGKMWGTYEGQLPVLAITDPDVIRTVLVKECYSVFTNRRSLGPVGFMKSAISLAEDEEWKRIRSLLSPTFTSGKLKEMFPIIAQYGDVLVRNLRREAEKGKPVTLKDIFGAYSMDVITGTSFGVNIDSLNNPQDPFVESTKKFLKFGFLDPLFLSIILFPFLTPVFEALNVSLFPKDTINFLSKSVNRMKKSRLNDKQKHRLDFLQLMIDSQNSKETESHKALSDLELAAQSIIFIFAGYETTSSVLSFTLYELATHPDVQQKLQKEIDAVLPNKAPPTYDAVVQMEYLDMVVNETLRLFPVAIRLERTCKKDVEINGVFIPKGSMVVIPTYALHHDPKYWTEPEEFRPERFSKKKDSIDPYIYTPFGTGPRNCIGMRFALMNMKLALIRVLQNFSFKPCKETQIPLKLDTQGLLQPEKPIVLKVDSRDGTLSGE
Chain of Cytochrome P450 2E1 (P05181 whole entry): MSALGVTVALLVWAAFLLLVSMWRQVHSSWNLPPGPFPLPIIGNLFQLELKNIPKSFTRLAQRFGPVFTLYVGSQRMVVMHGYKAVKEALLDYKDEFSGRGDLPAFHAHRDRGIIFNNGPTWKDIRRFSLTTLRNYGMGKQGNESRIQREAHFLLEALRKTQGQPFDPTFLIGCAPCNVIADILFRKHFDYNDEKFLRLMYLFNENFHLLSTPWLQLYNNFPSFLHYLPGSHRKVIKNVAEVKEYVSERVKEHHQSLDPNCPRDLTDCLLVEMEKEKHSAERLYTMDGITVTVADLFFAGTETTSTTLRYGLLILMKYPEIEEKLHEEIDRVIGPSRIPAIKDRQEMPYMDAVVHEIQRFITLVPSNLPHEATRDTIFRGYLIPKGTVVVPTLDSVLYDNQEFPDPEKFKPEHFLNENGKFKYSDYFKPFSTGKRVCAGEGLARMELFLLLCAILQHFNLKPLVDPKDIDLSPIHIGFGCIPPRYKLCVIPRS
Chain of Cytochrome P450 2C19 (P33261 whole entry): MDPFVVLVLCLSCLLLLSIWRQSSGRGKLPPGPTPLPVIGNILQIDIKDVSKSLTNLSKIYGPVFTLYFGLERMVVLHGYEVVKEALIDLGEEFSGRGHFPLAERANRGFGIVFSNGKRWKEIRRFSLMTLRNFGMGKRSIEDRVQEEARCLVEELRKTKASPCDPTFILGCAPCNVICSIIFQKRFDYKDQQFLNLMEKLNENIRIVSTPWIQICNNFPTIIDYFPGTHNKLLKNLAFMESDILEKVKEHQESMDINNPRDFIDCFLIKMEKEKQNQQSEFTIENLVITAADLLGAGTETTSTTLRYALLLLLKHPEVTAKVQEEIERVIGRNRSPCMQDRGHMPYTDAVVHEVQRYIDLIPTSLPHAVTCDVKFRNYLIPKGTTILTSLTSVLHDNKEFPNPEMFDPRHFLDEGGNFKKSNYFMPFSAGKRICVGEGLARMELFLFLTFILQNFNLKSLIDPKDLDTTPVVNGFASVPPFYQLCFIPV

As a reminder, the AUC(0-t) is exposure summed from dosing to a finite time, without extrapolation to infinity. Low values mean less exposure, high ones more exposure. Take `CC(=O)O[C@@]12CO[C@@H]1C[C@H](O)[C@@]1(C)C(=O)[C@H](O)C3=C(C)[C@@H](OC(=O)[C@H](O)[C@@H](NC(=O)OC(C)(C)C(F)(F)F)c4ccccc4)C[C@@](O)([C@@H](OC(=O)c4ccccc4)C12)C3(C)C` (stereo partly drawn): the Drug metabolism result in data set [1] is listed as “metabolite_detected”; in the data set on Plasma [2], “metabolite_notdetected”; in data set [3] it was “metabolite_detected”; at Cytochrome P450 2C19, “metabolite_notdetected”; in the data set on Plasma [5], “metabolite_notdetected”; at Cytochrome P450 3A5, “metabolite_detected”. In addition, the Drug metabolism entry on Cytochrome P450 2E1 is given as “metabolite_detected”; in data set [6] it was “metabolite_notdetected”; in [7], “metabolite_detected”; in the data set on Plasma [9], “metabolite_detected”; in data set [10] it was “metabolite_detected”; in data set [11], “metabolite_notdetected”. The Drug metabolism result was “metabolite_notdetected” on Cytochrome P450 2A6, “metabolite_detected” at Cytochrome P450 3A4 [12], “metabolite_detected” at Cytochrome P450 3A4 [13] and “metabolite_notdetected” in data set [14]. Moreover, the AUC(0-t) in [4] is 3860 ng·h/mL. Also, the Vd in data set [8] was found to be 18.1 L/kg.
